Legend:
Assay type in all cases: in vivo
[1] = tested on: cyst [Heterodera glycines]; assay: Greenhouse nematicide test, iodinated C1-C3 hydrocarbons (Experiment 4); settings: 0.4 ml rate
Experimental: In this experiment, the nematicidal properties of low molecular weight iodinated hydrocarbons were investigated. The nematicidal properties of iodinated C1-C3 hydrocarbons were evaluated in greenhouse experiments with field soil infested with root-knot [Meloidogyne arenaria] and cyst [Heterodera glycines] nematodes. lodomethane, di-iodomethane, iodoethane, di-iodoethane, and 1-iodopropane were added to soil at rates of 0.1, 0.2 and 0.4 ml/kg soil.
The treated soil was kept moist for 10 days when soil samples were taken for nematode analysis and ‘Brim’ soybean [Glycine max] planted. Soybeans were allowed to grow for 8 weeks and then were removed from the soil to determine plant growth, root-knot indices and the number of galls generated by M arenaria. […] All compounds except 1-iodopropane increased fresh shoot weight when applied at ≧0.1 ml/kg soil.

[2] = tested on: Meloidogyne arenaria, Pratylenchus brachyurus, and Paratrichodorus christiei; assay: Nematodes in roots and soils at end of Experiment 5 (all nematodes); settings: after eight weeks of growth
Experimental: (§1) In this experiment, the nematotoxic properties of ethylene diiodide were compared to that of methyl iodide. The nematicidal efficacies of iodomethane [IM] and ethylene diiodide [EDI] were compared in a greenhouse experiment using field soil infested with Meloidogyne arenaria, Pratylenchus brachyurus, and Paratrichodorus christiei.
(§2) Each compound was added to soil at rates of 100, 200, 300 and 400 mg s/kg of soil. The soil was potted and kept moist for two weeks when it was planted with ‘Brim’ soybean after taking samples for nematological analyses. After eight weeks of growth, the plants were removed from the pots and soil samples taken. Data was collected on weights of fresh roots and shoots, general appearance of roots [root condition index] and root gall formation by M. arenaria. All EDI rates eliminated M. arenaria juveniles [J2] and populations of the other nematodes in the preplant samples; IM reduced J2 numbers by 50-70%, eliminated P. christiei with the 400 mg rate, but had no effect on P. brachyurus. […] The general appearance of roots was improved by EDI at rates ≦300 mg, but MI had no effect on the variable. […] M. arenaria J2 populations in roots were reduced by 60-70% by MI treatments, but the compound had no effect on root populations of P. brachyurus. MI had no effect on J2 populations in the final soil samples, although it suppressed P. christiei, by 50-70%.

[3] = tested on: Paratrichodorus christiei; assay: Greenhouse nematicide test, iodomethane vs ethylene diiodide (Experiment 5); settings: all rates (100-400 mg/kg of soil)
Experimental: as §1, §2

Pratylenchus brachyurus = assay: as above; settings: rates 100-400 mg/kg of soil
Experimental: as §1, §2

Meloidogyne arenaria = assay: as above
Experimental: as §1, §2

'Brim' soybean = assay: Soybean growth and root condition in treated soil (Experiment 5)
Experimental: as §1, §2

ICCI [1,2-diiodoethane]
H. glycines J2 populations in soil [1]: eliminated
Nematodes in roots and soils at end of experiment [2]: no nematodes
P. christiei populations in preplant samples [3]: eliminated
P. brachyurus populations in preplant samples (Pratylenchus brachyurus): eliminated
M. arenaria juveniles [J2] in preplant samples (Meloidogyne arenaria; all rates (100, 200, 300, 400 mg/kg of soil)): eliminated
Galls in roots of plants from treated soil (M. arenaria) (Meloidogyne arenaria; soybean after eight weeks): no galls
Phytotoxicity to soybean ('Brim' soybean; 400 mg): phytotoxic
General appearance of roots [root condition index] ('Brim' soybean; rates ≦300 mg): improved
